Test results as given in ChEMBL document CHEMBL1140673, “Agonist lead identification for the high affinity niacin receptor GPR109a” (Bioorg Med Chem Lett, 2007).
The source made the active and inactive calls. The rule behind the calls is not given here.

Target: Hydroxycarboxylic acid receptor 3 (Homo sapiens) (UniProt P49019)
Experiment: Agonist activity at human cloned GPR109b receptor at 100 uM by forskolin-stimulated cAMP production test
Format: functional

Chain of Hydroxycarboxylic acid receptor 3 (Homo sapiens) (P49019 whole entry): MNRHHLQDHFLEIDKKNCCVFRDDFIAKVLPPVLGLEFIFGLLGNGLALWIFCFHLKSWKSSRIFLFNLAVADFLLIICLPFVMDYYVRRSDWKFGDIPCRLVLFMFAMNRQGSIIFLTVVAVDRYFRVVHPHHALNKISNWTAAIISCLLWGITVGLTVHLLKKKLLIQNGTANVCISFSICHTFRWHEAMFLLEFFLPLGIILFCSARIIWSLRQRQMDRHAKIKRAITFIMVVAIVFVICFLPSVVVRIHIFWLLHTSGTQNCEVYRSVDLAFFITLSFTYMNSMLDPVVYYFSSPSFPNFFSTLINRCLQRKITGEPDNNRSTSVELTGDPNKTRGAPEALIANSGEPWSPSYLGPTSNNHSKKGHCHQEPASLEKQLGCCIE

- Activity: inactive
Structure (SMILES): Cc1cc(C(=O)O)n[nH]1
